# In the supplement of paper PMC10307832:
# Compound: COC1=C(C=C(C=C1)C2=CC3=NC=CN3C(=N2)NC4=C(C=CC=N4)C(=O)N)OC [BAY61-3606] + CC1(C)CCC(c2ccc(Cl)cc2)=C(CN2CCN(c3ccc(C(=O)NS(=O)(=O)c4ccc(N[C@H](CCN5CCOCC5)CSc5ccccc5)c(S(=O)(=O)C(F)(F)F)c4)cc3)CC2)C1 [Navitoclax] (partner 0.5 µM)
# Experiment: relative viability (nuclei count vs DMSO), 5 days (fraction); higher = more cells survive
# Settings: first compound 0.02 µM
# Outline: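 Relative viability was taken as the ratio of nuclei in treated wells to nuclei in vehicle wells. Lung cancer cell lines in 1536-well plates received compounds by pin tool one day after seeding, either one drug alone or a fixed anchor-drug dose plus five library-drug doses (not always all listed) in √10 steps. Nuclei were counted on 4× images after 5 days of treatment, and values are medians of duplicate plates.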
row,Cell Line,relative viability
1,NCI-H2009,1.14
2,NCI-H596,0.942
3,SK-LU-1,1.19
4,SW 1573,0.84
5,LCLC-97TM1,0.393
6,NCI-H2228,1.18
7,EMC-BAC-2,1.21
8,NCI-H2087,0.896
9,LK-2,0.927
10,NCI-H2126,0.88
11,NCI-H1793,0.547
12,H3255,0.555
13,COR-L23,1.06
14,COR-L 105,0.79
15,LC-2-ad,0.471
16,LU99A,0.845
17,ChaGo-K-1,1.18
18,NCI-H322M,1.38
19,HCC-78,0.915
20,LXF-289,0.887
21,BEN,0.0718
22,HARA,1.2
23,HCC-827,1
24,NCI-H520,1.29
25,LOU-NH91,0.73
26,NCI-H2023,1.03
27,A-427,1.03
28,NCI-H647,1.21
29,PC-3 [JPC-3],0.826
30,NCI-H1755,1.03

# Same assay, conditions: first compound 0.06325 µM
row,Cell Line,relative viability
1,NCI-H2009,1.22
2,NCI-H596,1.04
3,SK-LU-1,0.836
4,SW 1573,0.918
5,NCI-H2228,0.736
6,EMC-BAC-2,1.21
7,NCI-H2087,1.06
8,LK-2,0.963
9,NCI-H2126,0.823
10,NCI-H1793,0.578
11,H3255,0.54
12,COR-L23,1.1
13,COR-L 105,0.714
14,LC-2-ad,0.521
15,LU99A,0.762
16,ChaGo-K-1,0.822
17,NCI-H322M,1.25
18,HCC-78,0.652
19,LXF-289,1.05
20,BEN,0.0633
21,HARA,1.12
22,HCC-827,0.998
23,NCI-H520,1.11
24,LOU-NH91,0.57
25,NCI-H2023,1.05
26,A-427,0.983
27,NCI-H647,1.05
28,PC-3 [JPC-3],0.849
29,NCI-H1755,1.02

# Same assay, conditions: first compound 0.2 µM
row,Cell Line,relative viability
1,NCI-H2009,1.14
2,NCI-H596,1.09
3,SK-LU-1,0.695
4,SW 1573,0.832
5,LCLC-97TM1,0.386
6,NCI-H2228,0.658
7,EMC-BAC-2,1.16
8,NCI-H2087,0.981
9,LK-2,0.925
10,NCI-H2126,0.769
11,NCI-H1793,0.471
12,H3255,0.502
13,COR-L23,1.02
14,COR-L 105,0.624
15,LC-2-ad,0.466
16,LU99A,0.984
17,ChaGo-K-1,0.946
18,NCI-H322M,1.22
19,HCC-78,0.905
20,LXF-289,0.952
21,BEN,0.0644
22,HARA,1.16
23,HCC-827,1.06
24,NCI-H520,1.24
25,LOU-NH91,0.731
26,NCI-H2023,1.07
27,A-427,0.962
28,NCI-H647,1.04
29,PC-3 [JPC-3],0.773
30,NCI-H1755,0.993

# Same assay, conditions: first compound 0.6325 µM
row,Cell Line,relative viability
1,NCI-H2009,1.15
2,NCI-H596,1.13
3,SK-LU-1,0.812
4,SW 1573,0.97
5,LCLC-97TM1,0.417
6,NCI-H2228,1.08
7,EMC-BAC-2,1.24
8,NCI-H2087,0.922
9,LK-2,0.896
10,NCI-H2126,0.759
11,NCI-H1793,0.459
12,H3255,0.494
13,COR-L23,1.11
14,COR-L 105,0.812
15,LC-2-ad,0.468
16,LU99A,0.828
17,ChaGo-K-1,0.666
18,NCI-H322M,1.3
19,HCC-78,0.802
20,LXF-289,0.981
21,BEN,0.0773
22,HARA,1.1
23,HCC-827,1.08
24,NCI-H520,1.1
25,LOU-NH91,0.812
26,NCI-H2023,1.02
27,A-427,1.06
28,NCI-H647,1.26
29,PC-3 [JPC-3],0.805
30,NCI-H1755,1.06

# Same assay, conditions: first compound 2 µM
row,Cell Line,relative viability
1,NCI-H2009,1.11
2,NCI-H596,0.712
3,SK-LU-1,0.55
4,SW 1573,0.683
5,LCLC-97TM1,0.326
6,NCI-H2228,0.713
7,EMC-BAC-2,1.19
8,NCI-H2087,0.82
9,LK-2,0.705
10,NCI-H2126,0.742
11,NCI-H1793,0.249
12,H3255,0.609
13,COR-L23,0.813
14,COR-L 105,0.409
15,LC-2-ad,0.26
16,LU99A,0.396
17,ChaGo-K-1,0.983
18,NCI-H322M,1.33
19,HCC-78,0.801
20,LXF-289,1.01
21,BEN,0.0651
22,HARA,1.02
23,HCC-827,1.02
24,NCI-H520,1.04
25,LOU-NH91,0.5
26,NCI-H2023,0.873
27,A-427,0.914
28,NCI-H647,0.663
29,PC-3 [JPC-3],0.776
